Source: patent publication US5585367A (priority 1990, dated 1996)
Values after ≈ are worked out from the molar mass of the structure shown. Values joined by “and” are separate entries in the source; they are usually repeats but may differ in a detail not shown here. Equal values may be shown once. Read-outs that look alike come from different tables or passages of the source.

Key:
HIV-1 strain IIIB /LAI = test: Inhibition of HIV-1 replication in acutely infected PBLs (p24 ELISA); format: cell-based; conditions: for Protection: "Toxic" means that the cells are destroyed
Experimental: A new assay was conducted by the AIDS laboratory of the REGA Institute for Medical Research of the Katholieke Universiteit of Leuven.
1,1'-azobisformamide was purchased from Riedel de Haen and stored in a refrigerator (4°-8° C.) under light-protected conditions. Dilutions were prepared in order to obtain concentrations of 0.4 μg/ml, 2 μg/ml, 10 μg/ml, 50 μg/ml and 250 μg/ml.
Peripheral Blood Lymphocytes (PBLs) were freshly collected from a single donor. PBLs were activated by phytohemagglutinin at 2 μg/ml during 3 days, and then cultured in the presence of IL-2 for 1 week.
HIV-1 strain IIIB /LAI was provided by R. C. Gallo (Popovic M. et al, Science 1984, 224:497-500). Stocks were obtained from the culture supernatants of HIV-1 infected cell lines (HUT 78/IIIB /LAI).
The inhibitory effects of 1,1'-azobisformamide on the replication of strain IIIB /LAI in PBLs were monitored by the detection of HIV-1 p24 core antigens. PBLs were incubated with an excess of strain IIIB /LAI at 37° C. for 60 min. All cells were washed once with RPMI 1640 medium. Thereafter cells were plated at 1×10^6 cells per ml in the presence of various concentrations of the test compound. Seven days after plating PBLs, p24 antigens were detected by enzyme-linked immunosorbent assay (ELISA) (HIV-1 p24 Core Profile ELISA from Du Pont).
This method comprises measuring the concentration of the viral antigen p24 in the supernatant, i.e., the concentration of free viruses produced by replication of the viruses present in the infected cells. This measure is expressed as a measure of protection (see Table I below), where [formula]

HIV = test: In-vitro combination with didanosine; format: cell-based; conditions: at and below the IC50
CD4 lymphocyte = test: Treatment of one patient with stage IV AIDS
Tat = Tat antagonism
HIV-1 Wild D = test: Inhibition of HIV replication in PBL's; format: cell-based; conditions: Human immunodeficiency virus 1
[1] = biological target: T1, HIV-1 reverse transcriptase (RT) (Human immunodeficiency virus type 1 BH10, UniProt P03366); test: Acellular in-vitro inhibition of reverse transcriptase (polyrC-oligodG template-primer-complex); format: biochemical
T1 construct: mature RT from Gag-Pol polyprotein (pr160Gag-Pol)
Experimental: ADA in a liquid medium was tested in an acellular in-vitro system for any inhibitory effect on HIV-1 reverse transcriptase (RT) using the polyrC-oligodG template-primer-complex. […] From concentrations of 60 μgr/ml upward, there is a 50% inhibition of RT. […] Therefore, ADA inhibits HIV replication with an as yet unknown but original mode of action.

[2] = oral
[3] = system: Vesicular Stomatitis Virus (VSV); test: microbe, parasite or virus in culture; format: cell-based; design: TCID 50: unit not given here; conditions: for log reduction at 50 µg/mL / log reduction at 100 µg/mL / log reduction at 150 µg/mL / log reduction at 250 µg/mL: Vesicular stomatitis virus, Vero
wild HIV-1 strains = test: Inhibition of HIV replication, wild HIV-1 strains; format: cell-based; conditions: for IC90: Human immunodeficiency virus 1, wild strains from patients
HIV-1 LAI/IIIB = test: Inhibition of HIV replication in PBL's; format: cell-based; conditions: PBLs; 0.4 μgr/ml to 250.0 μgr/ml
HIV-1 Wild F = test: Inhibition of HIV replication in PBL's; format: cell-based; conditions: Human immunodeficiency virus 1, Wild F (resistant to AZT, syncytium inducer)
pepsin = test: Inhibition of pepsin; format: biochemical
[4] = Single oral doses to healthy volunteers, tolerability and safety; format: in vivo, human
Experimental: Pharmaceutical grade ADA in gelatin capsules, each containing 500 mg, was administered as single oral doses to healthy volunteers to determine its tolerability and safety. […] These changes were reversible within 4-6 hours from intake.

HIV-1 Wild G = test: Inhibition of HIV replication in PBL's; format: cell-based; conditions: Human immunodeficiency virus 1, Wild G (resistant to AZT, syncytium inducer)
T4 lymphocytes = test: Treatment of three patients presenting different stages of AIDS; format: in vivo, human; conditions: first patient (final phase), 1500 mgr a day, day 30; day 0: 24 cells
HIV-1 Wild C = test: Inhibition of HIV replication in PBL's; format: cell-based; conditions: Human immunodeficiency virus 1
[5] = single oral doses, one volunteer

NC(=O)N=NC(N)=O [ADA, 1,1'-azobisformamide]
Protection (HIV-1 strain IIIB /LAI; 50 μg/ml): Toxic
Protection (HIV-1 strain IIIB /LAI; 250 μg/ml): Toxic
inhibition at 0.4 µg/mL (HIV-1 strain IIIB /LAI; Human immunodeficiency virus 1, IIIB, 168 h, 0.4 μg/ml, read-out: Protection): 15.2%
inhibition at 2 µg/mL (HIV-1 strain IIIB /LAI; Human immunodeficiency virus 1, IIIB, 168 h, 2 μg/ml, read-out: Protection): 45.8%
inhibition at 10 µg/mL (HIV-1 strain IIIB /LAI; Human immunodeficiency virus 1, IIIB, 168 h, 10 μg/ml, read-out: Protection): 77.6%
IC50 (HIV-1 strain IIIB /LAI; Human immunodeficiency virus 1, PBLs acutely infected with IIIB /LAI): 2.47 µg/mL (≈ 21.3 µM)
combination with didanosine (HIV): additive effects
absolute CD4 lymphocyte count (CD4 lymphocyte; 500 mg three times a day, 26-week period, from 77): 144 cells/mm^3
diarrhea (CD4 lymphocyte; 12 weeks after restarting ADA): free of diarrhea
weight (CD4 lymphocyte; 12 weeks after restarting ADA): gained considerable weight
weight and diarrhea after withdrawal of ADA (CD4 lymphocyte; RT medication without ADA): lost weight and developed intractable diarrhea
CD4 lymphocyte count after withdrawal of ADA (CD4 lymphocyte; RT medication without ADA, within two months): returned to baseline
CD4 lymphocyte count (CD4 lymphocyte; fifteen weeks after restarting ADA): 190 cells/mm^3
adverse effects that could be drug-related (CD4 lymphocyte; occasional increases up to 2 grams three times a day): No adverse effects
CD4 lymphocyte count (CD4 lymphocyte; restart at 1 gram three times a day, within two weeks): 144 cells/mm^3
Tat antagonism (Tat): not a Tat-antagonist
IC50 (HIV-1 Wild D): 10 µg/mL (≈ 86.1 µM)
IC90 (HIV-1 Wild D): 18.1 µg/mL (≈ 156 µM)
RT inhibition ([1]; at concentrations up to the IC90): not an RT-inhibitor
inhibition of RT ([1]; from concentrations of 60 μgr/ml upward): 50%
absorption [2]: absorbed via the gastro-intestinal route
distribution [2]: distributes readily to intracellular compartments
TCID 50 [3]: 6.90 and 6.73 and 6.55 and 4.28 and 3.75 and 3.58 and 3.93
log reductions [3]: > 2.0
log reduction at 50 µg/mL ([3]; 10 min, read-out: Log Red): 1.05
log reduction at 100 µg/mL ([3]; 10 min, read-out: Log Red): 1.22
log reduction at 150 µg/mL ([3]; 10 min, read-out: Log Red): 1.22
log reduction at 250 µg/mL ([3]; 10 min, read-out: Log Red): 1.4
log reduction at 50 µg/mL ([3]; 1 h, read-out: Log Red): 1.4
log reduction at 100 µg/mL ([3]; 1 h, read-out: Log Red): 1.22
log reduction at 150 µg/mL ([3]; 1 h, read-out: Log Red): 1.4
log reduction at 250 µg/mL ([3]; 1 h, read-out: Log Red): 1.4
log reduction at 50 µg/mL ([3]; 20 h, read-out: Log Red): 1.75
log reduction at 100 µg/mL ([3]; 20 h, read-out: Log Red): 2.28
log reduction at 150 µg/mL ([3]; 20 h, read-out: Log Red): 2.45
log reduction at 250 µg/mL ([3]; 20 h, read-out: Log Red): 2.1
log reduction at 150 µg/mL ([3]; read-out: log reduction (strongest effect)): 2.28
IC90 (wild HIV-1 strains; read-out: IC90 range): 17.4 to 21.2 µg/mL (≈ 150 to 183 µM)
IC90 (wild HIV-1 strains; read-out: median IC90 (complete inhibition, ≥90% inhibition)): 18 µg/mL (≈ 155 µM)
inhibition of the replication of wild HIV-1 strains (wild HIV-1 strains; PBLs, including strains phenotypically resistant to AZT, 0.4 to 250.0 μgr/ml): inhibit the replication
inhibition of the replication of HIV-1 (strain IIIB(LAI)) (HIV-1 LAI/IIIB): inhibit the replication
IC50 (HIV-1 Wild F): 6.4 µg/mL (≈ 55.1 µM)
IC90 (HIV-1 Wild F): 19 µg/mL (≈ 164 µM)
inhibition of pepsin (pepsin): does not inhibit pepsin
adverse effects on hematological and chemical parameters in blood and urine ([4]; 40 mg/kg or 60 mg/kg): No adverse effects were observed
adverse effects on blood pressure, pulse, or respiratory rate ([4]; any of the tested dosages): No adverse effects were observed
glutathione in peripheral blood ([4]; from doses of 40 mg/kg): slightly depressed
methemoglobin reduces [reductase] in peripheral blood ([4]; from doses of 40 mg/kg): slightly depressed
reversibility of the changes, time from intake ([4]; from doses of 40 mg/kg): 4 to 6 h
tolerability ([4]; single oral dosages of up to 60 mg per kg body weight): well tolerated
methemoglobin [4, 5]: dose-related increase in methemoglobin
return of methemoglobin to normal [4, 5]: within half an hour
time of methemoglobin Cmax after intake [4, 5]: 1 to 1.5 h
IC50 (HIV-1 Wild G): 11.2 µg/mL (≈ 96.5 µM)
IC90 (HIV-1 Wild G): 21.2 µg/mL (≈ 183 µM)
T4 lymphocytes (T4 lymphocytes): 49 cells/mm^3
IC50 (HIV-1 Wild C): 11.1 µg/mL (≈ 95.6 µM)
IC90 (HIV-1 Wild C): 18 µg/mL (≈ 155 µM)
